Source: article PMC7686313, “Phase 1 study of mTORC1/2 inhibitor sapanisertib (TAK-228) in advanced solid tumours, with an expansion phase in renal, endometrial or bladder cancer” (British Journal of Cancer, 2020)

Columns and labels:
endometrial cancer = experiment: Tumour response according to RECIST v1.1, expansion phase, endometrial cancer; assay type: in vivo, human; details: expansion Endometrial cancer (n = 18)
Source text: (§1) Patients could be considered for enrolment in one of three disease-specific cohorts: (1) advanced or recurrent endometrial adenocarcinoma with disease progression following ≥1 prior chemotherapy regimen; (2) advanced/metastatic urothelial cancer (carcinoma of the bladder, ureter and/or renal pelvis), progressive after ≥1 prior therapy in the metastatic/unresectable setting; (3) advanced RCC after failure of ≥1 prior antivascular endothelial growth factor therapy with no prior TORC1 inhibitor therapy, or progressed on treatment with TORC1 inhibitor therapy.

advanced solid tumours = experiment: Tumour response according to RECIST v1.1, advanced solid tumours; assay type: in vivo, human; details: for Duration of partial response (PR): dose-escalation
Protocol: Patients who received ≥1 dose of sapanisertib were included in the safety population. The response-evaluable population included patients who received ≥1 dose of sapanisertib, had measurable disease at baseline, and had ≥1 postbaseline assessment. In the dose-escalation phase, the evaluable population included patients who received ≥75% of the planned sapanisertib doses in cycle 1 or experienced a DLT. Response was assessed according to the RECIST v1.1[24] after every two treatment cycles. Adverse events (AEs) were assessed using the National Cancer Institute Common Terminology Criteria for Adverse Events, v4.0. Patients were provided with a home blood-glucose meter to monitor their fasting predose blood-glucose measurements to assess hyperglycaemia as an on-target AE and PD marker.

[1] = tested on: refractory clear-cell RCC; design: method as in earlier work; details: single-agent 30 mg QW; cited from earlier work
[2] = tested on: renal cell carcinoma (RCC); experiment: Tumour response according to RECIST v1.1, expansion phase, RCC; assay type: in vivo, human
Source text: as §1

bladder cancer = experiment: Tumour response according to RECIST v1.1, expansion phase, bladder cancer; assay type: in vivo, human; details: expansion Bladder cancer (n = 13)
Source text: as §1

[3] = dose-escalation QD 2–7 mg (n = 21)
[4] = dose-escalation QD × 3d 6–20 mg (n = 27)
[5] = dose-escalation QD × 5d 7–13 mg (n = 18)
[6] = dose-escalation QW 7–40 mg (n = 25)
[7] = expansion RCC TORC1 failure (n = 23)
[8] = expansion RCC TORC1 naïve (n = 18)

For `CC(C)n1nc(-c2ccc3oc(N)nc3c2)c2c(N)ncnc21` [Sapanisertib], the “Best overall response CR” value (endometrial cancer) was 0 n (%), the “Best overall response PD” value (endometrial cancer) was 8 (44) n (%) and the “Best overall response PR” value (endometrial cancer) was 1 (6) n (%). The “Best overall response SD < 6 months” value (endometrial cancer) was 8 (44) n (%), the “Best overall response SD ≥ 6 months” value (endometrial cancer) was 0 n (%) and the “CBR (CR + PR + SD ≥ 6 months)” value (endometrial cancer) was 1 (6) n (%). The “ORR (CR + PR)” value (endometrial cancer) was 1 (6) n (%), the “Patients achieving PR” value (advanced solid tumours; both phases) was “nine” and the “Patients with CR” value (advanced solid tumours; both phases, 40 mg QW) was “One”. The “Best overall response CR” value (advanced solid tumours; [3]) was 0 n (%), the “Best overall response PD” value (advanced solid tumours; [3]) was 10 (48) n (%) and the “Best overall response PR” value (advanced solid tumours; [3]) was 0 n (%). For the same molecule, the “Best overall response SD < 6 months” value (advanced solid tumours; [3]) was 9 (43) n (%), the “Best overall response SD ≥ 6 months” value (advanced solid tumours; [3]) was 2 (10) n (%) and the “CBR (CR + PR + SD ≥ 6 months)” value (advanced solid tumours; [3]) was 2 (10) n (%). For the same molecule, the “ORR (CR + PR)” value (advanced solid tumours; [3]) was 0 n (%), the “Best overall response CR” value (advanced solid tumours; [4]) was 0 n (%) and the “Best overall response PD” value (advanced solid tumours; [4]) was 14 (52) n (%). For the same molecule, the “Best overall response PR” value (advanced solid tumours; [4]) was 0 n (%), the “Best overall response SD < 6 months” value (advanced solid tumours; [4]) was 12 (44) n (%) and the “Best overall response SD ≥ 6 months” value (advanced solid tumours; [4]) was 1 (4) n (%). For the same molecule, the “CBR (CR + PR + SD ≥ 6 months)” value (advanced solid tumours; [4]) was 1 (4) n (%), the “ORR (CR + PR)” value (advanced solid tumours; [4]) was 0 n (%) and the “Best overall response CR” value (advanced solid tumours; [5]) was 0 n (%). The “Best overall response PD” value (advanced solid tumours; [5]) was 12 (67) n (%), the “Best overall response PR” value (advanced solid tumours; [5]) was 1 (6) n (%) and the “Best overall response SD < 6 months” value (advanced solid tumours; [5]) was 4 (22) n (%). The “Best overall response SD ≥ 6 months” value (advanced solid tumours; [5]) was 1 (6) n (%), the “CBR (CR + PR + SD ≥ 6 months)” value (advanced solid tumours; [5]) was 2 (11) n (%) and the “ORR (CR + PR)” value (advanced solid tumours; [5]) was 1 (6) n (%). For the same molecule, the “Best overall response CR” value (advanced solid tumours; [6]) was 0 n (%), the “Best overall response PD” value (advanced solid tumours; [6]) was 13 (52) n (%) and the “Best overall response PR” value (advanced solid tumours; [6]) was 2 (8) n (%). For the same molecule, the “Best overall response SD < 6 months” value (advanced solid tumours; [6]) was 9 (36) n (%), the “Best overall response SD ≥ 6 months” value (advanced solid tumours; [6]) was 1 (4) n (%) and the “CBR (CR + PR + SD ≥ 6 months)” value (advanced solid tumours; [6]) was 3 (12) n (%). For the same molecule, the “ORR (CR + PR)” value (advanced solid tumours; [6]) was 2 (8) n (%), the “Duration of partial response (PR)” value (advanced solid tumours; one patient with carcinoid tumour receiving 10 mg QD × 5dQW) was over 32 months and the “Duration of partial response (PR)” value (advanced solid tumours; two patients with RCC receiving 15 mg QW and 40 mg QW) was over 32 months. The Responses [1] was “no responses”, the “Best overall response CR” value [2, 7] was 0 n (%) and the “Best overall response PD” value [2, 7] was 7 (30) n (%). For the same molecule, the “Best overall response PR” value [2, 7] was 2 (9) n (%), the “Best overall response SD < 6 months” value [2, 7] was 9 (39) n (%) and the “Best overall response SD ≥ 6 months” value [2, 7] was 5 (22) n (%). The “CBR (CR + PR + SD ≥ 6 months)” value [2, 7] was 7 (30) n (%), the “ORR (CR + PR)” value [2, 7] was 2 (9) n (%) and the “Best overall response CR” value [2, 8] was 1 (6) n (%). The “Best overall response PD” value [2, 8] was 5 (28) n (%), the “Best overall response PR” value [2, 8] was 3 (17) n (%) and the “Best overall response SD < 6 months” value [2, 8] was 7 (39) n (%). The “Best overall response SD ≥ 6 months” value [2, 8] was 1 (6) n (%), the “CBR (CR + PR + SD ≥ 6 months)” value [2, 8] was 5 (28) n (%) and the “ORR (CR + PR)” value [2, 8] was 4 (22) n (%). The “Objective responses persisting for > 16 months” value ([2]; expansion phase) was “Four of the seven”, the “Duration of complete response (CR)” value ([2]; expansion, one patient with TORC1 inhibitor−naïve RCC receiving 40 mg QW) was 16 months and the “Best overall response CR” value (bladder cancer) was 0 n (%). For the same molecule, the “Best overall response PD” value (bladder cancer) was 8 (62) n (%), the “Best overall response PR” value (bladder cancer) was 0 n (%) and the “Best overall response SD < 6 months” value (bladder cancer) was 4 (31) n (%). The “Best overall response SD ≥ 6 months” value (bladder cancer) was 1 (8) n (%), the “CBR (CR + PR + SD ≥ 6 months)” value (bladder cancer) was 1 (8) n (%) and the “ORR (CR + PR)” value (bladder cancer) was 0 n (%).
